Results from patent US7235584B2, “Non-psychotropic cannabinoids” (Pharmos Corporation, priority 2000, dated 2007).

Key:
[1] = test system: rat model of myocardial ischemia; assay: Rat model of myocardial ischemia and reperfusion; format: in vivo, Sprague-Dawley rats; settings: given 15 minutes before occlusion; 45 minutes occlusion, 4 hours reperfusion
From the text: A rat model of ischemia and reperfusion was used to test the ability of compounds to reduce the volumes of infarction is considered a measure of their potential as cardioprotectors.
The following model of myocardial infarction and heart failure was used to test the ability of compounds to reduce the volumes of infarction is considered a measure of their potential as cardioprotectors.
The methods used are essentially as described in Leor and Kloner (Leor and Klonner, Am. J Cardiol. 75:1292–3 1995). The experiment was performed in a masked fashion. In brief, Sprague-Dawley rats were given either vehicle or PRS-211,095 15 minutes before occlusion. They were subjected to 45 minutes of coronary occlusion and 4 hours of reperfusion, after which the coronary artery was reoccluded and 0.25 ml of Unisperse™ dye was injected IV to determine area of risk (AR). The rats were euthanized and hearts were analyzed as to infarct size using a 1% solution of triphenylteuazolium chloride for 15 minutes at 37° C. The area of necrosis (AN) in each heart was expressed as a percentage of the area at risk. This was multiplied by the weight of each slice to obtain the mass of tissue at risk and necrosis.

[2] = test system: MPTP-mouse model of Parkinson's disease; assay: MPTP model of Parkinson's disease, TH-IR neurons in SNpc; format: in vivo, C57/BL mice; settings: seven days after MPTP
Protocol: MPTP-induced model of Parkinson's Disease (PD) in mice is used to evaluate the value of the novel PRS-211 compounds as therapeutic agents for PD.
The MPTP-mouse model of Parkinson's disease is used to test the efficacy of the compounds to prevent the onset of PD symptoms.
The protocol is based on Liberatore et al. (Liberatore, Jackson-Lewis, Vukosavic, Mandir, Vila , McAuliffe, Dawson, Dawson and Przedborski, Nature Medicine 5:1403–9, 1999).
The treatment groups are as follows: • Vehicle 5 ml/kg IP once just before MPTP administration. • Dexanabinol or analog 10 mg/kg IP once just before MPTP administration. • Dexanabinol or analog 20 mg/kg IP once just before MPTP administration. • Dexanabinol or analog 20 mg/kg IP once just before MPTP administration+additional dose 24 hours later.
Seven days after MPTP administration the mice were euthanized and their brains removed cut and stained using an antiserum to tyrosine hydroxylase (TH-IR), the rate limiting enzyme in monoamainergic neurons. Attention was focused on the Substantia nigra, pars compacta (SNpc), which are comprise of dompaminergic neurons that project to the striatum. It is these neurons that undergo degeneration in Parkinson's Disease. MPTP acts as a specific neurotoxin for these neurons, and the aim was to determine whether MPTP-induced nerve degeneration could be ameliorated by Dexanabinol at 10 (D-10), 20 (D-20) or 30 (D-30) mg/kg, or 2 injections of Dexanabinol at 20mg/kg (D-20×2) relative to vehicle alone (V).
The rescue effect of the various treatments was calculated by comparing the number of the TH-IR cells in each group relative to that in animals treated with MPTP alone, which was arbitrarily assigned a value of zero.

| SMILES | infarct size (AN/AR, AN/LV), FIG. 13 [1] | TH-IR SNpc (rescue effect relative to MPTP alone = 0) ([2]; 10 mg/kg IP) | TH-IR SNpc (rescue effect relative to MPTP alone = 0) ([2]; 20 mg/kg IP) | TH-IR SNpc (rescue effect relative to MPTP alone = 0) ([2]; 30 mg/kg IP) | TH-IR SNpc (rescue effect relative to MPTP alone = 0) ([2]; 2 injections at 20 mg/kg) |
| --- | --- | --- | --- | --- | --- |
| CCCCCCC(C)(C)c1cc(O)c2c(c1)OC(C)(C)C1CC=C(CSc3ncc[nH]3)CC21 (single isomer, unassigned; (+)) [211,092-000] | clear decrease in infarct size |  |  |  |  |
| CCCCCCC(C)(C)c1cc(O)c2c(c1)OC(C)(C)[C@H]1CC=C(CO)CC21 (stereo partly drawn) [211,007-000, 1,1 dimethyl heptyl-(3S,4S)-7-hydroxy-Δ^6-tetrahydrocannabinol] |  | −7.85 | 28.52 | 22.73 | 8.5 |
